In patent US20050107356A1, “Combination of a CB1 receptor antagonist and of a product which activates dopaminergic neurotransmission in the brain, the pharmaceutical compositions comprising them and their use in the treatment of parkinson's disease” (Aventis Pharma S.A., priority 2001, published 2005):
Marks after values point to notes of the source that are not given here.

Tests used:
Assay type in all cases: in vivo
[1] = system: Reserpine-treated rats; assay: Reserpine-induced akinesia in the rat, locomotor activity; CB1 antagonist i.p. co-administered with a strong dose of levodopa + benserazide (dyskinesia model); details: CB1 antagonist 3 mg/kg i.p., levodopa + benserazide 50 mg/kg, recorded 2.5 hours
Description: (§1) The synergistic effect of the combination of one or more products which activate dopaminergic neurotransmission in the brain and of one or more CB1 antagonists in the treatment of Parkinson's disease was determined in a model of akinesia induced by reserpine in the rat according to the following protocol:
(§2) Male Sprague-Dawley rats were treated with reserpine administered subcutaneously at a dose of 3 mg/kg (1 ml/kg) in order to induce akinesia in the animal. 18 hours after this treatment, the locomotor activity of these animals was measured and recorded using an automatic system (Videotrack, France). The locomotion, expressed in centimeters, is estimated by a mean overall distance covered during this period (n=11-38 rats per group). The statistical analysis is carried out by a variance analysis and a post-hoc comparison (if appropriate) using a Mann-Whitney or Dunnett test. A significant effect is recorded for p<0.05.
(§3) The results for the ip administration of the CB1 antagonists (Table 1) are expressed as percentage of increase with respect to the activity of quinpirole and as percentage of decrease with respect to the activity of a very strong dose of levodopa.
The combination of a CB1 receptor antagonist and of a strong dose of levodopa (dyskinesia model) is produced in the following way: […]

[2] = system: Reserpine-treated rats; assay: Reserpine-induced akinesia in the rat, locomotor activity; CB1 antagonist i.p. co-administered with quinpirole (D2 dopaminergic agonist); details: CB1 antagonist 1.5 mg/kg i.p., locomotor activity recorded 1 hour
Description: as §1, §2, §3
The combination of a CB1 receptor antagonist and of a D2 dopaminergic agonist (quinpirole) is produced in the following way: […]

[3] = system: Reserpine-treated rats; assay: Reserpine-induced akinesia in the rat, locomotor activity; CB1 antagonist po one hour before quinpirole (D2 dopaminergic agonist); details: recorded 1 hour
Description: as §1, §2
(§4) The studies by the oral route are carried out in a hydrophobic formulation solvent Labrafil/Labrasol (40/60%, w/w). These products are administered (in a volume of 1 ml/kg) one hour before the dopaminergic agonist. The recording of the locomotor activity begins 5 min after the intraperitoneal injection of the dopaminergic agonist and lasts 1 hour. The D1 dopaminergic agonist is 0.3 mg/kg C1-APB. The D2 dopaminergic agonist is 0.1 mg/kg quinpirole.

[4] = system: Reserpine-treated rats; assay: Reserpine-induced akinesia in the rat, locomotor activity; CB1 antagonist po one hour before C1-APB (SKF 82958, D1 dopaminergic agonist); details: recorded 1 hour
Description: as §1, §2, §4

CS(=O)(=O)C(=C1CN(C(c2ccc(Cl)cc2)c2ccc(Cl)cc2)C1)c1cc(F)cc(F)c1 [Example 1, 1-[bis(4-chlorophenyl)methyl]-3-[(3,5-difluorophenyl)(methylsulfonyl)methylene]azetidine]
Combination with levodopa (120 mg/kg ip): percentage of decrease with respect to the activity of a very strong dose of levodopa [1]: −42%* | Combination with quinpirole (62.5 μg/kg ip): percentage of increase with respect to the activity of quinpirole [2]: +125%*** | Combination with quinpirole (0.1 mg/kg ip): percentage of increase with respect to the activity of quinpirole ([3]; CB1 antagonist 1 mg/kg po): +33% NS | Combination with quinpirole (0.1 mg/kg ip): percentage of increase with respect to the activity of quinpirole ([3]; CB1 antagonist 3 mg/kg po): +58%** | Combination with quinpirole (0.1 mg/kg ip): percentage of increase with respect to the activity of quinpirole ([3]; CB1 antagonist 10 mg/kg po): +23% NS | Combination with C1-APB (0.3 mg/kg ip): percentage of decrease with respect to the activity of a strong dose of C1-APB ([4]; CB1 antagonist 1 mg/kg po): −33% NS | Combination with C1-APB (0.3 mg/kg ip): percentage of decrease with respect to the activity of a strong dose of C1-APB ([4]; CB1 antagonist 3 mg/kg po): −67%** | Combination with C1-APB (0.3 mg/kg ip): percentage of decrease with respect to the activity of a strong dose of C1-APB ([4]; CB1 antagonist 10 mg/kg po): −62%**
